For orientation: IC50 means the concentration needed to halve the response being measured. One may read the MTD as the largest dose that counted as tolerated.

The values below come from patent US20230339991A1, “HYPOXIA-ACTIVATED DNA ALKYLATING AGENT AND MEDICAL USE THEREOF” (ASCENTAWITS PHARMACEUTICALS, LTD., priority 2020, published 2023).

The test system of one data set is NCI-H2228. Nature of the data set: Cytotoxicity, NSCLC cell line NCI-H2228. The settings on record: Homo sapiens. Format: cell-based. The method, then:
(§1) Compounds were exposed at various concentrations for 72 hours, followed by a wash step. Fresh medium was added for growth. The cell was stained to determine the cell survival rate and compared with controls treated with medium only.
(§2) In particular, exponentially grown cells were inoculated in 96-well plates at a density of 2×10^3 cells/100 μl/well and incubated for 24 hours at 37° C. and under the conditions of 5% CO2, 95% air and 100% relative humidity before addition of 99 μl of culture solution. The compounds were dissolved in 100% DMSO at 200 times of the desired final test concentration. When the drug was added, an aliquot of 1 μl of the compound at the specified concentration was added to microwells already containing 199 μl of medium to obtain the reported final drug concentration. After adding the drug, plates were incubated for an additional 72 hours at 37° C., 5% CO2, 95% air and 100% relative humidity. The cell assay plate was left to balance for 30 minutes at room temperature and 100 μL of medium was removed from per well. 100 μl CTG reagent (CelltiterGlo kit) was added into each well. The plate was placed on a fast shaker and shaked for 2 min, and kept in dark at room temperature for 30 min. The chemiluminescence signal value was read by Envision instrument. […]

In another data set the test system is NCIH1755. In words: Cytotoxicity, NSCLC cell line NCIH1755. Conditions: Homo sapiens, NCI-H1755. The class given is cell-based. As for the experimental part: as §1, §2
The next data set concerns QGP-1. Nature of the data set: Cytotoxicity, pancreatic cancer PA cells QGP-1. The class given is cell-based. Conditions: Homo sapiens. As for the experimental part:
as §1, §2

In a further data set the test system is PANC-1. Nature of the data set: Cytotoxicity, pancreatic cancer PA cells PANC-1. Format: cell-based. Conditions: Homo sapiens. The method, then: as §1, §2
The next data set has as its system KP-4. In words: Cytotoxicity, pancreatic cancer PA cells KP-4. Format: cell-based. The settings on record: Homo sapiens. The method, then:
as §1, §2

Data set [1] relates to human lung cancer NCI-H460 subcutaneous xenograft. Nature of the data set: Human lung cancer NCI-H460 subcutaneous xenograft model, compound A. The class given is in vivo, BALB/c nude mice. The method, then: BALB/c nude mice were subcutaneously inoculated with human lung cancer NCI-H460 cells to establish human lung cancer subcutaneous transplantation tumor model. […] The test drug compound A 40 mg/kg group was administered by tail vein injection once every three weeks for 2 times, and observed for one week after the second administration. The test drug compound A 20 mg/kg group was administered by intraperitoneal injection once a day for 5 days continuously, and observed for 24 days. […] The administration dosage of compound A was determined according to the MTD test.
The tumor volumes of mice from each group were measured at different days and the average values were taken.

Data set [2] has as its system murine intestinal cancer CT26 subcutaneous model. In words: Murine intestinal cancer CT26 subcutaneous model. Format: in vivo, BALB/c mice. The settings on record: 30 mg/kg, tail vein, twice a week. As for the experimental part: BALB/c mice were subcutaneously inoculated with murine intestinal cancer CT26 cells to establish a murine intestinal cancer subcutaneous transplantation model. […] Anti-mouse PD-1 Ab 10 mg/kg in the single treatment group and in the combination treatment group with compound C 30 mg/kg was administered by intraperitoneal injection twice a week.

Data set [3] can be described thus: Maximal tolerance dose (MTD) test, compound C, two cycles. Format: in vivo, ICR mice. Conditions: both sexes, mouse, in vivo; intravenous; ICR mice; read-out: maximal tolerance dose (MTD), overall. As for the experimental part: (§3) 18 ICR mice, 9 females/9 males, were randomly divided into compound C 10 mg/kg group, 20 mg/kg group and 40 mg/kg group according to gender and body weight, with 3 females/3 males in each group. […] It was administered once a day for 5 continuous days, and recovered for 1 week after the last administration. […] To explore the maximal tolerance dose, two cycles of administration were required. The dosage was adjusted and the administration was continued for 5 days.
(§4) The animals were closely observed for 2 h after administration on the administration day and once a day in the morning and once in the afternoon on the non-administration day. Body weight and dietary intake were measured twice a week during the test period. Dead animals and all surviving animals after 14 days from the last administration were subjected to autopsy. The autopsy was performed on the pathological organs, and histopathological examination of the pathological organs was performed.

The next data set deals with ICR mice. The description is as above. The class given is in vivo. The settings on record: for maximal tolerance dose: intravenous, ICR mice. The method, then:
as §3, §4

Data set [4] concerns HuPrime pancreatic cancer PA3546 subcutaneous xenograft PDX tumor. In words: PA3546 human pancreatic cancer subcutaneous PDX model. The settings on record: for relative tumor inhibition rate TGI (%): Day 25.
Procedure: BALB/c nude mice were subcutaneously inoculated with HuPrime® model PA3546 tumor blocks to establish human pancreatic cancer subcutaneous transplantation tumor model. […] Efficacy was evaluated according to the relative tumor inhibition rate TGI (%), and safety was evaluated according to the change in body weight and the death of animals.
Data set [5] in a line: Liver microsome stability, monkey. The method, then:
1) Two individual experiments were performed.
1a) With NADPH: 10 μL of 20 mg/mL liver microsomes and 40 μL of 10 mM NADPH were added to the culture solution. The final concentrations of microsomes and NADPH were 0.5 mg/mL and 1 mM, respectively.
1b) Without NADPH: 10 μL of 20 mg/mL liver microsomes and 40 μL of ultrapure H2O were added to the culture solution. The final concentration of microsomes was 0.5 mg/mL.
3) 50 μL of aliquots were taken from the reaction solution at 0 min and 30 min. The reaction was terminated by adding 4 volumes of cold acetonitrile and four internal standards (IS, 100 nM alprazolam, 200 nM caffeine, 200 nM labetalol and 2 μM ketoprofen). The samples were centrifuged at 3, 220×g for 40 min. The aliquots of 100 μL of supernatant were mixed with 100 μL of ultrapure H2O and then used for LC-MS/MS analysis. All experiments were performed in duplicate.

`O=[N+]([O-])c1ccc(C(OP(=O)(N2CC2)N2CC2)C(F)(F)F)c2ccccc12` (racemic) [Compound A]: the IC50 in the data set with NCI-H2228 is 264 nM; in the data set on NCIH1755 it was 6.46 µM; in the data set with QGP-1, 6.27 µM; in the data set with PANC-1 it was 29.3 µM; with KP-4, 6.1 µM. Further, the “relative tumor inhibition rate TGI (%)” value in [1] (40 mg/kg, Q3W×2, IV, Day31) stood at 66.87%. In addition, the tumor volume in [1] (Test Group 7, 40 mg/kg IV, day 10) worked out at 184.06 mm^3; in data set [1] (Test Group 7, 40 mg/kg IV, day 14), 153.75 mm^3; in data set [1] (Test Group 7, 40 mg/kg IV, day 17) it was 159.72 mm^3; in data set [1] (Test Group 7, 40 mg/kg IV, day 21), 218.13 mm^3; in data set [1] (Test Group 7, 40 mg/kg IV, day 24), 291.07 mm^3; in [1] (Test Group 7, 40 mg/kg IV, day 28), 520.17 mm^3. Further, the tumor volume in [1] (Test Group 7, 40 mg/kg IV, day 31) came to 580.70 mm^3; in [1] (Test Group 7, 40 mg/kg IV, day 35), 447.32 mm^3; in data set [1] (Test Group 7, 40 mg/kg, Q3W×2, IV, day 7), 143.84 mm^3; in [1] (Test Group 8, 20 mg/kg IP, day 10) it was 173.09 mm^3; in [1] (Test Group 8, 20 mg/kg IP, day 14), 152.99 mm^3; in data set [1] (Test Group 8, 20 mg/kg IP, day 17), 130.06 mm^3. For the same molecule, the tumor volume in data set [1] (Test Group 8, 20 mg/kg IP, day 21) was found to be 129.66 mm^3; in data set [1] (Test Group 8, 20 mg/kg IP, day 24), 164.63 mm^3; in [1] (Test Group 8, 20 mg/kg IP, day 28), 272.20 mm^3; in [1] (Test Group 8, 20 mg/kg IP, day 31) it was 447.50 mm^3; in [1] (Test Group 8, 20 mg/kg IP, day 35), 651.58 mm^3; in data set [1] (Test Group 8, 20 mg/kg, QD×5×1 week, IP, day 7) it was 144.63 mm^3.
Turning to `O=[N+]([O-])c1ccc([C@@H](OP(=O)(N2CC2)N2CC2)C(F)(F)F)c2ccccc12` (single isomer, unassigned) [Compound C], the median survival time in data set [2] is reported as 19 days. Further, the MTD in [3] fell in the range of 20 to 40 mg/kg. For the same molecule, the “animal deaths after first cycle” value with ICR mice (10, 20 and 40 mg/kg i.v., continuous administration for 5 days) is reported as “no animal death”. The animal deaths in the data set on ICR mice (10/80 mg/kg group (first cycle 10, second cycle 80 mg/kg)) is listed as 1/6; in the data set with ICR mice (20/60 mg/kg group), 3/6; with ICR mice (40/40 mg/kg group) it was 1/6. The maximal tolerance dose with ICR mice (first cycle) was above 40 mg/kg; in the data set on ICR mice (second cycle), below 40 mg/kg. Moreover, the “body weight loss / tolerability” value in [4] (10 mg/kg (Group 3)) was “no significant body weight loss and were well tolerated”. Moreover, the “relative tumor inhibition rate TGI (%)” value turned out to be 32.35% in data set [4] (10 mg/kg tail vein QW×3), 36.79% in [4] (20 mg/kg tail vein QW×3) and 35.93% in [4] (40 mg/kg tail vein QW×3). For the same molecule, the “body weight loss / death” value in [4] (20 mg/kg (Group 4)) is “significant weight loss and even death of individual or part of mice”; in [4] (40 mg/kg (Group 5)), “significant weight loss and even death of individual or part of mice”.
Take `CC(OP(=O)(N1CC1)N1CC1)c1ccc([N+](=O)[O-])c2ccccc12` (stereo not shown) [Compound D]: the “Remaining percentage after 30 minutes” value is recorded as 0.86% in data set [5] (with NADPH) and 95.89% in data set [5] (without NADPH).
